Bridge positions count the residues as written; N and C are the ends. Ends that are not written are not given here. Peptide text beside a SMILES is read from it.

From article PMC4785745, “Genome-wide analysis identifies gain and loss/change of function within the small multigenic insecticidal Albumin 1 family of Medicago truncatula” (BMC Plant Biology, 2016) come the findings set out here.

One assay relates to Sf9 cells. The format is cell-based, Spodoptera frugiperda. As to conditions: for LC50: cultured Sf9 cells, 15 000 cells/well, 24 h exposure, 27 °C, CellTiter-Blue, according to Rahioui et al. [32], '-' = no toxicity in the range assayed. The method, then: Sf9 cells lines were grown at 27 °C in Lonza’s culture medium, supplemented with 5 % fetal bovine serum (FBS) and 0.1 % gentamicin. Sf9 cells were seeded, in 96-well plates, 24 h prior to the experiments (15 000 cells/well) and were exposed to increasing concentrations of synthetic peptide. After this 24 h period, cell viability was determined using the CellTiter-Blue Viability Assay (Promega), according to the manufacturer’s instructions. After addition of the dye, the cells were incubated at 27 °C for 4 h. The absorbance, at 570 and 600 nm, was then measured using a microplate reader (MR 7000, Dynatech Laboratories Inc., USA).
On the technique in general: The colour change of resazurin is a common sign of viable cells or microbes.

The test system of a further assay is PA1b binding site. Description: Ligand binding to the PA1b-binding site using 125I-PA1b. The conditions noted are these: for binding to the PA1b-binding site (in words): 125I-PA1b ligand binding; for Ki: affinity to the PA1b binding site, ligand binding using 125I-PA1b, according to [12], '-' = no binding in the range assayed. The method, then: The affinity of synthetic peptides for the PA1b-binding site was determined by ligand binding using ^125I-toxin [12].

A further assay concerns Sitophilus. Format: in vivo. The conditions noted are these: standard Sitophilus mortality assay [17]; data not shown.
Assay [1] relates to Sf9 cell ramp membrane current. Description: Whole-cell patch-clamp: blockage of Sf9 cell ramp membrane current. The format is cell-based, Spodoptera frugiperda. The conditions noted are these: Sf9 cells; for EC50: whole-cell patch clamp, voltage ramps 1.5 s from −100 to 90 mV, measured at +50 mV, Hill fit with 100 % blockage as fixed maximum, mean ± S.E., n = 9 (AG41), n = 8 (PA1b), SEM, read-out: EC50, inhibition of ramp membrane current. The method, then:
We further investigated the AG41’s biological activity by performing an electrophysiological experiment on cultured Sf9 cells to check whether its cell-membrane ion transport alteration differed from that of PA1b, the model pea peptide. […] At 35 nM, AG41 decreased by approximately 35 % the ramp current amplitude measured at +50 mV (from 68 pA to 44 pA), while a similar concentration of 37.5 nM PA1b had no effect (trace from AG41 even differed from control at 3.5 nM).
Current recordings were made at room temperature, under voltage clamp using the whole-cell configuration of the patch-clamp technique. Command voltage and data acquisition were performed with pClamp software (Axon Instruments, Foster city, CA, USA). The holding potential was −80 mV. Membrane currents were evoked, every 10 s, by voltage ramps of 1.5 s in duration applied from −100 to 90 mV, filtered at 300 Hz and sampled at 1 kHz with an analogue-to-digital converter (Labmaster TM 40, Scientific Solutions Inc., Solon OH, USA). The external solution contained (in mM): 135 NaCl, 4 KCl, 2 MgCl2, 10 CaCl2 and 10 Mes, adjusted to pH 6.4 with NaOH. The internal solution contained (in mM): 140 K-aspartate, 1 MgCl2, 3 K2-ATP, 5 EGTA and 5 Hepes, adjusted to pH 7.2 with KOH. Salts were purchased from Sigma-Aldrich and peptides were prepared as 60 % (v/v) ethanol stock solution as previously described.
Biological results are expressed as the mean ± S.E.M., n indicating the number of Sf9 cells studied (electrophysiology). Statistical comparisons were made using a Mann–Whitney U or Wilcoxon tests at the 95 % confidence level.
Background: The patch-clamp technique gives a direct electrical read-out from membranes.

With “EFCSSVGSFCSPFNTNPCGYLGNCRCVPYYLYGGTCENPFG (disulfide 3-24, 10-26, 18-36 (inferred)) [EG41]”, the LC50 (in general, the concentration lethal to half of the exposed cells or organisms) in the assay with Sf9 cells was 0.075 ± 0.0031 µM. For the same molecule, in the assay on PA1b binding site, the “binding to the PA1b-binding site (in words)” value (“binding” below) was “revealed binding properties” and the affinity, expressed as Ki, was 0.0728 ± 0.0027 µM.

As to `CC[C@H](C)[C@@H]1NC(=O)[C@H](Cc2ccccc2)NC(=O)[C@@H]2CSSC[C@@H]3NC(=O)[C@H](C)NC(=O)[C@H](CCC(=O)O)NC(=O)CNC(=O)[C@@H](NC(=O)[C@H](CCCCN)NC(=O)[C@H](C)N)CSSC[C@H](NC(=O)CNC(=O)[C@H](CC(=O)O)NC(=O)CNC(=O)[C@H](C)NC(=O)[C@H](CC(N)=O)NC(=O)[C@H](CSSC[C@@H](C(=O)N[C@@H](C)C(=O)N[C@@H](CCC(N)=O)C(=O)N[C@@H](CC(C)C)C(=O)N[C@@H](CO)C(=O)N[C@H](C(=O)O)[C@@H](C)O)NC(=O)[C@H](Cc4ccccc4)NC(=O)CNC(=O)[C@@H]4CCCN4C(=O)[C@H](CC(C)C)NC(=O)[C@H]([C@@H](C)O)NC(=O)[C@H](CC(C)C)NC(=O)[C@H](Cc4ccc(O)cc4)NC(=O)[C@H](C)NC(=O)[C@H](CC(=O)O)NC(=O)[C@H]([C@@H](C)O)NC1=O)NC(=O)[C@H](Cc1ccccc1)NC(=O)[C@H](CC(N)=O)NC(=O)[C@H](Cc1ccccc1)NC(=O)[C@H](CCC(N)=O)NC(=O)[C@H]([C@@H](C)O)NC(=O)[C@H](CC(=O)O)NC3=O)C(=O)N[C@@H](CCCNC(=N)N)C(=O)N2` [AS40] (H-AKCGEACDTQFNFCNAGDGCRCFITDAYLTLPGFCAQLST-OH; disulfide 3-20, 7-22, 14-35 (inferred); N-terminus and C-terminus assumed), the LC50 with Sf9 cells came out at 0.047 ± 0.0022 µM. Also, in the assay with PA1b binding site, the “binding” value is recorded as “revealed binding properties” and the affinity, expressed as Ki, was 0.0103 ± 0.002 µM.

`CC[C@H](C)[C@@H]1NC(=O)CNC(=O)[C@H](CO)NC(=O)[C@@H](NC(=O)[C@H](CC(=O)O)NC(=O)[C@H](C)N)CSSC[C@@H]2NC(=O)[C@H](CC(=O)O)NC(=O)[C@H](CO)NC(=O)[C@H](CO)NC(=O)[C@H](CCCNC(=N)N)NC(=O)[C@@H]3CSSC[C@@H](C(=O)N[C@H](C(=O)N[C@@H](CC(N)=O)C(=O)N4CCC[C@H]4C(=O)N[C@H](C(=O)N[C@@H](CO)C(=O)O)[C@@H](C)CC)[C@@H](C)CC)NC(=O)[C@H](Cc4ccccc4)NC(=O)CNC(=O)CNC(=O)[C@H]([C@@H](C)CC)NC(=O)[C@H](CC(C)C)NC(=O)[C@H](C)NC(=O)[C@H]([C@@H](C)CC)NC(=O)[C@@H]4CCCN4C(=O)[C@H]([C@@H](C)CC)NC(=O)[C@H](CSSC[C@H](NC1=O)C(=O)N[C@@H](CO)C(=O)N1CCC[C@H]1C(=O)N[C@@H](Cc1ccccc1)C(=O)N[C@@H](CCC(=O)O)C(=O)N[C@@H](CCSC)C(=O)N1CCC[C@H]1C(=O)N1CCC[C@H]1C(=O)N3)NC(=O)[C@H](CCCNC(=N)N)NC2=O` [AS37] (H-ADCSGICSPFEMPPCRSSDCRCIPIALIGGFCINPIS-OH; disulfide 3-20, 7-22, 15-32 (inferred); N-terminus and C-terminus assumed) registered a median lethal concentration (LC50) in the assay on Sf9 cells of 0.107 ± 0.0032 µM. Further, the “toxicity in Sitophilus mortality assay (in words)” value (“toxicity … (in words)” below) in the assay on Sitophilus is “toxic”. Moreover, in the assay on PA1b binding site, the “binding” value was “revealed binding properties” and the Ki (commonly a measure of affinity in units of concentration, obtained from inhibition or displacement) stood at 0.015 ± 0.002 µM.

In the case of “GQCARVGMRCSRALPNPCGDIVTCRCVHLHLVGSTCIDYTGDGL (disulfide 3-24, 10-26, 18-36) [GL44]”, the LC50 result in the assay on Sf9 cells was “- ((−) scores a negative result (no toxicity nor binding in the toxin range assayed))”. Further, in the assay on PA1b binding site, the “binding” value is “did not present binding” and the Ki was greater than 0.694 µM.

`CC[C@H](C)[C@@H]1NC(=O)[C@H](C(C)C)NC(=O)[C@H](CC(C)C)NC(=O)CNC(=O)[C@H](C(C)C)NC(=O)[C@@H]2CCCN2C(=O)[C@H]([C@@H](C)CC)NC(=O)[C@@H]2CSSC[C@@H]3NC(=O)[C@H](C(C)C)NC(=O)CNC(=O)[C@H](CC(N)=O)NC(=O)[C@@H](NC(=O)[C@H](CO)NC(=O)[C@H](C)N)CSSC[C@H](NC(=O)[C@H](C)NC(=O)[C@H](CO)NC(=O)[C@H]([C@@H](C)O)NC(=O)CNC(=O)[C@H](CSSC[C@@H](C(=O)N[C@@H](CCCNC(=N)N)C(=O)N[C@@H](CC(N)=O)C(=O)N4CCC[C@H]4C(=O)N[C@@H](CO)C(=O)NCC(=O)O)NC(=O)[C@H](Cc4ccc(O)cc4)NC(=O)CNC1=O)NC(=O)[C@@H]1CCCN1C(=O)[C@@H]1CCCN1C(=O)[C@H](CCSC)NC(=O)[C@H](CCC(=O)O)NC(=O)[C@H](Cc1ccccc1)NC(=O)[C@@H]1CCCN1C(=O)[C@H](CO)NC3=O)C(=O)N[C@@H](CCCNC(=N)N)C(=O)N2` [PA1b, reference compound] (H-ASCNGVCSPFEMPPCGTSACRCIPVGLVIGYCRNPSG-OH; disulfide 3-20, 7-22, 15-32; N-terminus and C-terminus assumed): the 50% lethal concentration (LC50) with Sf9 cells was determined as 0.0798 ± 0.0036 µM. In addition, in assay [1] (37.5 nM peptide), the “effect on ramp membrane current (in words)” value is “no effect”. Moreover, the EC50 (in general, the midpoint of the concentration-response curve) in assay [1] is 0.415 ± 0.0756 µM. Moreover, the Ki on PA1b binding site was 0.017 ± 0.0011 µM.

Take “DEC-W-G-PCSVLQTPP-CPLSK CYCIPLFLVVGY---CSHASS (bicyclic or more) [DS37, synthetic folded Medicago truncatula A1b peptide, cluster 1, non-canonical CYC motif]”: the LC50 entry in the assay on Sf9 cells is given as “- ((−) scores a negative result (no toxicity nor binding in the toxin range assayed))”. Moreover, the “toxicity … (in words)” value in the assay with Sitophilus is recorded as “not toxic”. The “binding” value in the assay with PA1b binding site is given as “did not present binding”.

“ASCPNVGAVCSPFETKPCGNVKDCRCLPWGLFFGTCINPTG (disulfide 3-24, 10-26, 18-36 (inferred)) [AG41]”: the “toxicity relative to the original pea albumin 1b” value in the assay with Sf9 cells (compared with PA1b, Table 1) is listed as “almost ten times superior”. The LC50 in the assay with Sf9 cells turned out to be 0.00544 ± 0.0017 µM. For the same molecule, the “toxicity … (in words)” value in the assay on Sitophilus is listed as “highly toxic”. The “decrease of ramp current amplitude measured at +50 mV” value in assay [1] (35 nM peptide) is listed as “approximately 35%”. For the same molecule, the “ramp current amplitude measured at +50 mV” value in assay [1] (35 nM peptide (control 68 pA)) worked out at 44 pA. Further, the EC50 in assay [1] came out at 0.0146 ± 0.0004 µM. In addition, in the assay with PA1b binding site, the “binding” value is “revealed binding properties” and the Ki is 0.0013 ± 0.0006 µM.
